The source of these data is paper PMC11061832, “Antiviral Rotenoids and Isoflavones Isolated from Millettiaoblata ssp. teitensis” (Journal of Natural Products, 2024).

The subject of data set [1] is RSV. As to the kind of experiment: RSV plaque reduction assay in HEp-2 cells. The note with it: for SI (CC50/IC50): CC50 HEp-2 / anti-RSV IC50; for IC50: human respiratory syncytial virus, HEp-2, 72 h, read-out: anti-RSV activity IC50. As for the experimental part:
(§1) The extracts and the isolated compounds were tested for antiviral activity against RSV by the viral plaque reduction assay in cultures of HEp-2 cells (Table 3, Supporting Information). A tetrazolium-based cytotoxicity assay on HEp-2 cells was also performed to exclude that the anti-RSV activity was a result of general cytotoxicity. The cytotoxicity assay was complemented by microscopy observation of the compound- and extract-treated cells to detect possible cytostatic activity, such as poor cell growth and/or altered cell shape that may affect antiviral activity. […] At this stage, it is difficult to assess whether the cytostatic activity of these specific compounds contributed to the protection of cells against virus infection, and accordingly the specificity of anti-RSV action of 9 and 13 requires further investigation. An attempt was made to address this issue by testing cytotoxic activities of the most promising compounds in human embryonic lung fibroblasts (HELFs), i.e., primary cells derived from lung interstitium.
Human adenocarcinoma cells of uterine cervix (HeLa) were grown in Eagle’s minimum essential medium supplemented with 5% fetal calf serum and antibiotics. HELFs were grown in Eagle’s minimum essential medium supplemented with 5% fetal calf serum, L-glutamine, and antibiotics. […] The RSV stock was prepared and stored as described previously by Lundin et al.[50]
The RSV plaque reduction assay was performed as described previously[27],[51] with some modifications. […] Following 15 min of incubation at 37 °C in a humidified atmosphere comprising 5% CO2 (incubator), the cells were inoculated with 50–100 plaque-forming units of RSV A2. After incubation of the virus–compound mixture with cells for 2.5 h in the CO2 incubator, the inoculum was removed and 750 μL of 1% methylcellulose solution in DMEM-M comprising the same concentration of test compound/extract was added and left for a further 3 days in the CO2 incubator. The cells were stained with a 1% solution of crystal violet, and the viral plaques were counted under a microscope.

Data set [2] in a line: in vitro. The note with it: human. As for the experimental part: as §1
(§2) HEp-2 cells were cultivated in Dulbecco’s modified Eagle’s medium (DMEM) supplemented with 8% fetal calf serum and 292 μg/mL of L-glutamine. Human adenocarcinoma cells of uterine cervix (HeLa) were grown in Eagle’s minimum essential medium supplemented with 5% fetal calf serum and antibiotics. HELFs were grown in Eagle’s minimum essential medium supplemented with 5% fetal calf serum, L-glutamine, and antibiotics. The A2 strain of RSV (ATCC VR-1540) was used. The RSV stock was prepared and stored as described previously by Lundin et al.[50] In some experiments, strain HGP of HRV-2 (ATCC, VR-482) was used.
(§3) The tetrazolium-based cytotoxicity assay using a CellTiter 96 Aqueous One solution reagent (Promega) was performed for the test extracts and isolated compounds in HEp-2, HELFs, and HeLa cells as described previously.[50]
(§4) Figure S130. Cell viability in presence of the crude extracts of leaves and root heart of Milletia oblata ssp teitensis. The HEp-2 cells were incubated for 3 days at 37 °C with specific concentration of test extract. After addition of the tetrazolium (MTS)-based reagent the absorbance was recorded at 490 nm. The results are expressed as a percentage of absorbance developed in extract treated cells relative to DMSO treated controls. […]

The nature of data set [3]: Tetrazolium-based cytotoxicity assay in HeLa cells. The note with it: human, 34 °C. The format is cell-based. The procedure:
Figure S133. Anti-HRV-2 (IC50) of 3 of Milletia oblata ssp teitensis in HeLa cells. In the cell protection against HRV assay, the cells were incubated in the presence of specific concentrations of test compound for 3 h, then inoculated with HRV and incubated for further 3 days at 34°C. Two separate experiments were performed, and the cell protection against HRV-2 was calculated according to formula described in the Method section. In the cell viability assay, the cells were incubated with test compound for 3 days at 34°C. For further explanations see legend to Figure S130.
Table S1. Anti-RSV activity, cytotoxicity for HEp-2 cells, and selectivity indices (SI) of Milletia oblata extracts. For explanations see legend to Table 3.
Compound/extract Anti-RSV activity Cytotoxicity SI […]
Root wood extract 3.4 66 PCS (8 µg/mL) 19.4
(1 picture or pasted object on this page, not shown here)

Data set [4] deals with human embryonic lung fibroblasts (HELFs). As to the kind of experiment: Tetrazolium-based cytotoxicity assay in human embryonic lung fibroblasts. The note with it: primary lung fibroblasts. The procedure:
as §1, §2, §3

Experiment in data set [5]: as above
The note with it: human. The procedure: as §1, §2, §3

Data set [6] relates to HRV-2. As to the kind of experiment: Anti-HRV-2 tetrazolium-based cell protection assay in HeLa cells. Also on record: species or system human rhinovirus 2 (strain HGP).
Data set [7] relates to HEp-2 cells. As to the kind of experiment: Microscopic recording of cytostatic activity in compound-treated HEp-2 cells. Conditions: microscopy, PCP poor cell proliferation, ACS altered cell shape, PCS poor cell staining, concentration(s) at which seen in brackets. The procedure:
as §1

The test system of data set [8] is HEp-2 cells. As to the kind of experiment: Tetrazolium-based cytotoxicity assay in HEp-2 cells. Conditions: read-out: cytotoxicity CC50; HEp-2 cells, tetrazolium-based assay. The procedure:
as §1, §2, §3, §4

Where [9] appears, read: cytotoxicity CC50, HEp-2 cells, tetrazolium-based assay.
Setting [10] is: human embryonic lung fibroblasts (HELFs), primary cells.
Setting [11] is: HEp-2 cells, cytotoxicity CC50, HEp-2 cells, tetrazolium-based assay.

Molecules are shown by their SMILES. “Also recorded” adds a separate entry of the source.

For the compound `COc1ccc2c(c1)O[C@@H]1COc3c(cc(OC)c4c3OCO4)[C@@H]1C2=O` [Compound 1, (6aS,12aS)-2,9-dimethoxy-3,4-methylenedioxyrotenoid], in data set [1], the “SI (CC50/IC50)” value is 1.0 and the half-maximal inhibitory concentration (IC50) is above 100 µM. The compound further returned a CC50 in data set [2] (setting [9]) above 100 µM.
As for `COc1cc2c(cc1OC)C(=O)[C@@]1(O)c3cc4c(cc3OC[C@H]1O2)OCO4` [Compound 2, (6aR,12aR)-9,10-dimethoxy-2,3-methylenedioxy-12a-hydroxyrotenoid], in data set [1], the “SI (CC50/IC50)” value came out at 1.0 and the half-inhibitory concentration (IC50) was above 100 µM. This compound returned a CC50 in data set [2] (setting [9]) above 100 µM.
For `COc1ccc2c(=O)c3c(oc2c1)COc1cc2c(cc1-3)OCO2` [Compound 3, 9-methoxy-2,3-methylenedioxy-6a-2a-dehydrorotenoid], the results for the CC50 at 3 days in data set [3] and in data set [2] (setting [11]) were 48 µM and 90 µM, respectively. Moreover, the “SI (CC50/IC50)” value in data set [1] is given as 4.1. For the same compound, the IC50 is 22 µM in data set [1] and 4.2 µM in data set [6] (Rhinovirus A, HRV2, 72 h, protection of HeLa cells against HRV-2 infection, 3 days, 34 °C). The “cytotoxicity (in words)” value in data set [4] is “low cytotoxicity”. The CC50 in data set [5] (setting [10]) is above 100 µM. The SI in data set [6] (CC50 HeLa / anti-HRV-2 IC50) came out at 11.4.
In the case of `COc1c(O[C@@H]2O[C@H](CO[C@H]3O[C@H](C)[C@@H](O)[C@H](O)[C@@H]3O)[C@@H](O[C@@H]3O[C@H](CO[C@H]4O[C@H](C)[C@@H](O)[C@H](O)[C@@H]4O)[C@@H](O)[C@H](O)[C@H]3O)[C@H](O)[C@H]2O)cc2c(=O)c(-c3ccc4c(c3)OCO4)coc2c1OC` [Compound 4, isoplatycarpanetin-6-O-β-glucosyl-(7″→1‴′)-α-rhamnosyl-(4″→1‴)-β-glucosyl-(7‴→1‴′)-α-rhamnoside], in data set [1], the “SI (CC50/IC50)” value amounted to 1.0 and the half-maximal inhibitory concentration (IC50) was above 100 µM. This compound also returned a CC50 at 3 days in data set [2] (setting [11]) above 100 µM.
As to `COc1ccc2c(c1)O[C@@H]1COc3cc4c(cc3[C@@H]1C2=O)OCO4` [Compound 5, oblarotenoid C], in data set [1], the “SI (CC50/IC50)” value is above 1.9 and the IC50 came out at 53 µM. The compound further showed a CC50 in data set [2] (setting [9]) above 100 µM.
For the compound `COc1ccc2c(c1)O[C@@H]1COc3cc4c(cc3[C@]1(O)C2=O)OCO4` [Compound 6, oblarotenoid A], in data set [7], the “cytotoxicity: cytostatic activity” value is “PCS (20.0 μM)”. Besides, in data set [1], the “SI (CC50/IC50)” value stood at 35.7. Moreover, the concentration for half-maximal inhibition (IC50) in data set [1] was determined as 1.4 µM. For the same compound, the CC50 in data set [5] was 1.3 µM; in data set [8] it was 50 µM; in data set [2] (setting [9]) it was above 26.5 µM.
Take `COc1ccc2c(c1)O[C@@H]1COc3c(cc(OC)c4c3OCO4)[C@]1(O)C2=O` [Compound 7, oblarotenoid D]: in data set [1], the “SI (CC50/IC50)” value is listed as 3.8 and the concentration for half-maximal inhibition (IC50) was 1.8 µM. The CC50 in data set [2] (setting [9]) was 6.7 µM.
In the case of `COc1ccc2c(c1)O[C@@H]1COc3cc(OC)c(OC)cc3[C@]1(O)C2=O` [Compound 8, 12a-hydroxymunduserone], the “cytotoxicity: cytostatic activity” value in data set [7] is given as “PCS (20.0 μM)”. Also, the “SI (CC50/IC50)” value in data set [1] is 28.0. The IC50 in data set [1] was found to be 1.5 µM. The CC50 is 4.8 µM in data set [5], 42 µM in data set [8] and above 26.5 µM in data set [2] (setting [9]).
`COc1cc2c(cc1OC)[C@]1(O)C(=O)c3ccc4c(c3O[C@@H]1CO2)C=CC(C)(C)O4` [Compound 9, tephrosin]: the “cytotoxicity: cytostatic activity” value in data set [7] is “cytostatic activity at concentrations close to their IC50 values; also recorded: PCS (0.8 and 4.0 μM)”. In data set [1], the “SI (CC50/IC50)” value turned out to be 15.6 and the IC50 is 0.8 µM. Also, in data set [2], the CC50 at 3 days was determined as 12.5 µM.
On to `COc1cc2c(cc1OC)[C@@H]1C(=O)c3ccc4c(c3O[C@@H]1CO2)C=CC(C)(C)O4` [Compound 10, deguelin], for which the “cytotoxicity: cytostatic activity” value in data set [7] was “PCS (4.0 μM)”. In data set [1], the IC50 came out at 0.4 µM. The CC50 was 0.3 µM in data set [5], 26.5 µM in data set [8] and above 26.5 µM in data set [2] (setting [9]).
For the compound `COc1cc2c(cc1-c1coc3c4c(c(OC)cc3c1=O)OC(C)(C)C=C4)OCO2` [Compound 11, ichthynone], in data set [7], the “cytotoxicity: cytostatic activity” value is “PCS (20.0 μM)”. Further, in data set [1], the “SI (CC50/IC50)” value amounted to 11.4 and the half-inhibitory concentration (IC50) turned out to be 8 µM. Also, in data set [4], the “cytotoxicity (in words)” value is on record as “low cytotoxicity”. Moreover, in data set [5] (setting [10]), the CC50 was above 100 µM.
With `COc1ccc2c(=O)c(-c3cc(OC)c4c(c3OC)OCO4)coc2c1` [Compound 12, 7,2′,5′-trimethoxy-3′,4′-methylenedioxyisoflavone], in data set [1], the “SI (CC50/IC50)” value amounted to 1.0 and the IC50 was above 100 µM. For the same compound, the CC50 at 3 days in data set [2] (setting [11]) was above 100 µM.
In the case of `CC(C)=CCOc1ccc(-c2coc3c4c(ccc3c2=O)OC(C)(C)C=C4)cc1` [Compound 13, isoerythrin-A-4′-prenyl ether], the “cytotoxicity: cytostatic activity” value in data set [7] is “cytostatic activity at concentrations close to their IC50 values; also recorded: PCS (4.0, 20.0, and 100.0 μM)”. For the same compound, in data set [1], the “SI (CC50/IC50)” value was above 47.6 and the half-maximal inhibitory concentration (IC50) stood at 2.1 µM. Also, the CC50 in data set [5] (setting [10]) was found to be 9 µM. This compound returned a CC50 at 3 days in data set [2] (setting [11]) above 100 µM.
Turning to `CC(C)=CCOc1ccc(-c2coc3c4c(cc(O)c3c2=O)OC(C)(C)C=C4)cc1` [Compound 14, 4′-prenyloxyderrone], in data set [7], the “cytotoxicity: cytostatic activity” value is recorded as “PCS (100.0 μM)”. In data set [1], the “SI (CC50/IC50)” value is on record as above 10 and the IC50 stood at 10 µM. The “cytotoxicity (in words)” value in data set [4] is on record as “low cytotoxicity”. In data set [5] (setting [10]), this compound showed a CC50 above 100 µM.
`COc1ccc2c(=O)c(-c3cc4c(cc3OC)OCO4)coc2c1` [Compound 15, aglycuneatin methyl ether]: the “cytotoxicity: cytostatic activity” value in data set [7] is recorded as “PCS (20.0 μM)”. In addition, in data set [1], the “SI (CC50/IC50)” value is 6.5 and the IC50 worked out at 10 µM. The compound also returned a CC50 in data set [5] (setting [10]) of 47.1 µM. Moreover, the CC50 at 3 days in data set [2] (setting [11]) was 65 µM.
Consider `CC1(C)C=Cc2c(ccc3c(=O)c(-c4ccc5c(c4)OCO5)coc23)O1` [Compound 16, calopogonium isoflavone B], for which, in data set [1], the “SI (CC50/IC50)” value was found to be 1.0 and the 50% inhibitory concentration (IC50) was above 100 µM. Also, in data set [2] (setting [11]), the CC50 at 3 days was above 100 µM.
In the case of `COc1cc2c(cc1-c1coc3cc(O)ccc3c1=O)OCO2` [Compound 17, maximaisoflavone G], in data set [1], the “SI (CC50/IC50)” value amounted to 1.0 and the IC50 is above 100 µM. In data set [2] (setting [11]), the CC50 at 3 days was above 100 µM.
In the case of `CC1(C)C=Cc2c(ccc(C(=O)/C=C/c3ccc(O)cc3)c2O)O1` [Compound 19, isobavachromene], in data set [1], the “SI (CC50/IC50)” value is below 2.5 and the concentration for half-maximal inhibition (IC50) was above 0.8 µM. The compound further displayed a CC50 at 3 days in data set [2] (setting [11]) of 2 µM.
Take `NC(=O)c1ncn([C@@H]2O[C@H](CO)[C@@H](O)[C@H]2O)n1` [ribavirin, reference compound]: the half-inhibitory concentration (IC50) in data set [1] came to 10.6 µM. In data set [2] (cytotoxicity CC50), this compound registered a CC50 at 3 days above 100 µM.
